# In patent publication US10239836B2, “Benzenecarbothioccyclopenta[c] pyrrole-1,3-dione compounds and process for synthesis thereof” (Council of Scientific & Industrial Research, priority 2014, dated 2019):
# Read-outs that look alike come from different tables or passages of the source.
# How the values were obtained:
# [1] = Cytotoxicity assay (MTT viability); format: cell-based, Mouse; details: mouse; RAW 264.7 cells, MTT, 24 h treatment, serum free
# Description: (§1) Mouse macrophage cell line RAW 264.7 was maintained in laboratory at 37° C. in
# (§2) RPMI-1640 media supplemented with 10% heat-inactivated fetal bovine serum (FBS) and penicillin/streptomycin.
# Viability of cultured cells was determined by (4,5-dimethylthiazol-2-yl)-2,5-diphenyltetrazolium bromide (MTT; Sigma) as described earlier (1). RAW 264.7 was seeded in triplicate at a density of 2×10^4 cells per well on a 96-well plate. […] MTT solution (0.5 mg/ml) was then added to each well and incubate for 4 h at 37° C. At the end of the incubation period, the medium was removed and the resulting purple formazan was solubilized with acidic isopropanol (0.1 N HCl in absolute isopropanol), and the absorbance was read at 570 nm using Biorad Microplate reader (Biorad, USA).
# [2] = system: LPS induced NO generation in RAW 264.7 cells; experiment: Inhibition of LPS induced NO generation (nitrite, Griess reagent); format: cell-based, Mouse; details: for IC50: Mus musculus, read-out: NO inhibition (B) IC50; for Selectivity index (A/B): cytotoxicity IC50 / NO inhibition IC50, RAW 264.7 cells
# Description: as §1, §2
# Nitrite, a stable oxidized product of NO, was measured in culture supernatant using Griess reagent (Sigma Aldrich) according to a previously reported method (2). After overnight seeding in 96-well plate (2×10^4 cells/well), RAW 264.7 cell was treated with lipopolysaccharide (LPS; Sigma) at a concentration of 1 μg/ml along with different doses of compounds (as determined from cytotoxicity assay) in serum-free culture for 24 h. Following treatment, media was collected and centrifuged at 2,000 rpm for 5 min to remove cellular debris. 50 μl of this media was then reacted with equal volume of Griess reagent for 15 min at room temperature in dark and absorbance was taken at 540 nm using Microplate reader (Biorad, USA). Nitrite concentrations were determined using standard solutions of sodium nitrite prepared in cell culture medium.
# [3] = RAW264.7, RAW 264.7 cells, LPS 1 μg/ml, 24 h, serum-free
Compound,melting point [°C],IC50 at 24 h [1] [µM],"IC50 [2, 3] [µM]",Selectivity index (A/B) [2],"IC50 ([2]; RAW264.7, 24 h) [µM]"
O=C1NC(=O)C2(SC(=O)c3ccc(F)cc3)CCC=C12 (stereo not drawn),191 to 192,,,,
O=C1NC(=O)C2=C1CCC2SC(=O)c1ccccc1 (stereo not drawn),149 to 151,,,,
"O=C(S[C@@]12CC[C@@H](O)[C@@H]1C(=O)NC2=O)c1ccc(O)cc1 (racemic) [(±)-2, S-((3aS*,6R*,6aR*)-6-hydroxy-1,3-dioxohexahydrocyclopenta[c]pyrrol-3a(1H)-yl) 4-hydroxybenzothioate]",,434,225,1.925,
"CC(=O)OC1CCC2=C1C(=O)NC2=O (racemic) [Compound 5, 1,3-dioxo-1,2,3,4,5,6-hexahydrocyclopenta[c]pyrrol-4-yl acetate]",,616,42,14.67,
O=C(S[C@@]12CC[C@@H](O)[C@@H]1C(=O)NC2=O)c1ccccc1O (relative stereo),213 to 216,,,,
"CC(=O)S[C@]12CC[C@@H](O)[C@H]1C(=O)NC2=O (relative stereo) [Compound 7, S-((3aR*,6R*,6aS*)-6-Hydroxy-1,3-dioxohexahydrocyclopenta[c]pyrrol-3a(1H)-yl) ethanethioate]",,558,148,3.7762,
"CC(=O)S[C@@]12CC[C@@H](O)[C@@H]1C(=O)NC2=O (relative stereo) [Compound 8, S-((3aS*,6R*,6aR*)-6-Hydroxy-1,3-dioxohexahydrocyclopenta[c]pyrrol-3a(1H)-yl) ethanethioate]",120 to 129,857,833,1.029,
"O=C(Cc1ccccc1)S[C@]12CC[C@@H](O)[C@H]1C(=O)NC2=O (relative stereo) [Compound 9, S-((3aR*,6R*,6aS*)-6-Hydroxy-1,3-dioxohexahydrocyclopenta[c]pyrrol-3a(1H)-yl) 2-phenylethanethioate]",,834,132,6.322,
"O=C(Cc1ccccc1)S[C@@]12CC[C@@H](O)[C@@H]1C(=O)NC2=O (relative stereo) [Compound 10, S-((3aS*,6R*,6aR*)-6-Hydroxy-1,3-dioxohexahydrocyclopenta[c]pyrrol-3a(1H)-yl) 2-phenylethanethioate]",,774,143,5.418,
"O=C(S[C@@]12CC[C@@H](O)[C@@H]1C(=O)NC2=O)c1ccc(F)cc1 (relative stereo) [Compound 11, S-((3aS*,6R*,6aR*)-6-Hydroxy-1,3-dioxohexahydrocyclopenta[c]pyrrol-3a(1H)-yl) 4-fluorobenzothioate]",184 to 186,474,318,1.49,
"O=C(S[C@@]12CC[C@@H](O)[C@@H]1C(=O)NC2=O)c1cccs1 (relative stereo) [Compound 12, S-((3aS*,6R*,6aR*)-6-Hydroxy-1,3-dioxohexahydrocyclopenta[c]pyrrol-3a(1H)-yl) thiophene-2-carbothioate]",,10900,36.6,297.0519,
"O=C(S[C@@]12CC[C@H](O)[C@@H]1C(=O)NC2=O)c1ccccc1Cl (relative stereo) [Compound 13, S-((3aS*,6S*,6aR*)-6-Hydroxy-1,3-dioxohexahydrocyclopenta[c]pyrrol-3a(1H)-yl) 2-chlorobenzothioate]",173 to 174,668,127,5.245,
"O=C(S[C@@]12CC[C@@H](O)[C@@H]1C(=O)NC2=O)c1ccccc1Cl (relative stereo) [Compound 14, S-((3aS*,6R*,6aR*)-6-Hydroxy-1,3-dioxohexahydrocyclopenta[c]pyrrol-3a(1H)-yl) 2-chlorobenzothioate]",154 to 158,717,178,4.022,
"O=C(S[C@]12CC[C@@H](O)[C@H]1C(=O)NC2=O)c1ccccc1 (relative stereo) [Compound 15, S-((3aR*,6R*,6aS*)-6-Hydroxy-1,3-dioxohexahydrocyclopenta[c]pyrrol-3a(1H)-yl) benzothioate]",185 to 186,479,72.4,6.622,
"O=C(S[C@@]12CC[C@@H](O)[C@@H]1C(=O)NC2=O)c1ccccc1 (relative stereo) [Compound 16, S-((3aS*,6R*,6aR*)-6-Hydroxy-1,3-dioxohexahydrocyclopenta[c]pyrrol-3a(1H)-yl) benzothioate]",180 to 182,17100,65.2,261.7025,
"O=C(Cc1ccccc1)S[C@]12CCC[C@H]1C(=O)NC2=O (relative stereo) [Compound 19, S-((3aR*,6aS*)-1,3-Dioxohexahydrocyclopenta[c]pyrrol-3a(1H)-yl) 2-phenylethanethioate]",,426,56.9,7.48,
"O=C(SC1CC[C@]2(SC(=O)c3ccc(F)cc3)C(=O)NC(=O)[C@H]12)c1ccc(F)cc1 (relative stereo) [Compound 23, S,S′-((3aR*,6aR*)-1,3-Dioxohexahydrocyclopenta[c]pyrrole-3a,6(1H)-diyl) bis(4-fluorobenzothioate)]",,211,,2.142,98.3
"CC(=O)SC1CC[C@]2(SC(C)=O)C(=O)NC(=O)[C@H]12 (relative stereo) [Compound 28, S,S′-((3aR*,6aR*)-1,3-Dioxohexahydrocyclopenta[c]pyrrole-3a,6(1H)-diyl) diethanethioate]",,10000,,505.4343,19.8
"CC(=O)OC1CC[C@]2(SC(=O)Cc3ccccc3)C(=O)NC(=O)[C@H]12 (relative stereo) [Compound 32, (3aS*,6aR*)-1,3-Dioxo-6a-((2-phenylacetyl)thio) octahydrocyclopenta[c]pyrrol-4-yl acetate]",,1610,,23.57,68.2
"CC(=O)OC1CC[C@]2(SC(=O)c3ccc(F)cc3)C(=O)NC(=O)[C@H]12 (relative stereo) [Compound 33, (3aS*,6aR*)-6a-((4-Fluorobenzoyl)thio)-1,3-dioxooctahydrocyclopenta[c]pyrrol-4-yl acetate]",,12100,34.3,353.8076,
"CC(=O)OC1CC[C@]2(SC(=O)c3ccccc3Cl)C(=O)NC(=O)[C@H]12 (relative stereo) [Compound 34, (3aS*,6aR*)-6a-((2-Chlorobenzoyl)thio)-1,3-dioxooctahydrocyclopenta[c]pyrrol-4-yl acetate]",,9080,101,89.51,
"CC(=O)OC1CC[C@]2(SC(=O)c3ccccc3)C(=O)NC(=O)[C@H]12 (relative stereo) [Compound 35, (3aS*,6aR*)-6a-(Benzoylthio)-1,3-dioxooctahydrocyclopenta[c]pyrrol-4-yl acetate]",,1910,64.3,29.74,
"O=C1NC(=O)C2=C1CCC2O (stereo in doubt) [(+)-4, (S)-4-Hydroxy-5,6-dihydrocyclopenta[c]pyrrole-1,3(2H,4H)-dione]",,217,95.9,2.26,
"O=C1NC(=O)C2=C1CCC2O (stereo in doubt) [(−)-4, (R)-4-Hydroxy-5,6-dihydrocyclopenta[c]pyrrole-1,3(2H,4H)-dione]",,319,121,2.631,
"O=C(S[C@@]12CC[C@H](O)[C@@H]1C(=O)NC2=O)c1ccc(O)cc1 [(+)-1, S-((3aS,6S,6aR)-6-hydroxy-1,3-dioxohexahydrocyclopenta[c]pyrrol-3a(1H)-yl) 4-hydroxybenzothioate]",,1020,71.8,14.14,
"O=C(S[C@]12CC[C@H](O)[C@H]1C(=O)NC2=O)c1ccc(O)cc1 [(−)-2, S-((3aR,6S,6aS)-6-hydroxy-1,3-dioxohexahydrocyclopenta[c]pyrrol-3a(1H)-yl) 4-hydroxybenzothioate]",,1380,140,9.85,
"O=C(S)c1ccc(O)cc1 [Compound 6, 4-hydroxybenzothioic S-acid]",,2910,127,22.99,
